`Cc1oc(-c2ccc(O)cc2)nc1CCOc1ccc(N)cc1` gave a melting point of 184 to 185 °C.
`NC(=O)c1ccc2[nH]cc(C3=CCNCC3)c2c1` showed a melting point of 225 to 230 °C.
With `CC(C)(C)OC(=O)c1cnc(NC(=O)[C@H](CC2CCCC2)c2ccc(S(C)(=O)=O)c(Cl)c2)cn1` the melting point was 121 to 127 °C.
In the case of `O=CC=Cc1cnn(-c2c(Cl)cc(C(F)(F)F)cc2Cl)n1`, the melting point is reported as 68 to 69 °C.
`CCOC(=O)C1CC(=O)NN1c1ncc(Cl)cc1Cl` (stereo not given) gave a melting point of 105 to 108 °C.
With `CC(C)N(CCO)c1nc(Nc2cccc(NS(C)(=O)=O)c2)nc2[nH]ccc12` the melting point was 129 to 132 °C.
For `COc1ccc(OC(=O)c2c3ccccc3nc3ccccc23)cc1`, the melting point was 202 to 203 °C.
In the case of `CON(c1ccc(SC)cc1[N+](=O)[O-])S(=O)(=O)c1ccc(C)cc1`, the melting point is reported as 110 to 111 °C.
`CCCCc1nc(C(C)(C)O)c(C#N)[nH]1` showed a melting point of 171 to 172 °C.
Work on `O=C(O)c1cc(-c2ccc3c(c2)CCO3)nn(CC2CC2)c1=O` yielded a melting point of 160 to 165 °C.
For `O=S(=O)(Nc1cccc(CCOCc2ccc(-c3cccc(Cl)c3)cc2)c1)C(F)(F)F`, the melting point was 105 to 107 °C.
Work on `Cc1cc(Cc2ccccc2)nc(Nc2ccc(-n3ccnc3CO)cc2)n1` yielded a melting point of 95 to 98 °C.
Compound `CCOC(=O)c1cc2nc(C)oc2nc1C(=O)OCC` has a melting point of 101 to 103 °C.
Compound `CC1(C)CCc2c(N3CCOCC3)nc3sc4c(NCCCN5CCCC5=O)ncnc4c3c21` has a melting point of 142 to 143 °C.
For `CCOC(=O)CCc1csc2c(C(=O)OCC)c(=O)c3cc(F)c(Cl)cc3n12`, the melting point was 200 °C.
Work on `COC(=O)CN1C(=S)CN=C(c2ccccc2Cl)c2ccccc21` yielded a melting point of 183 to 184 °C.
In the case of `OCc1cccc(C=Cc2cccc(-c3ccsc3)c2)c1`, the melting point is reported as 79 to 81 °C.
With `COc1cccc(C=CCN2CCc3nc(N)sc3CC2)c1` the melting point was 120 to 124 °C.
`CC(C)CC(=O)N[C@H]1CC[C@H](CCN2CCC(c3cccc4c3CCO4)CC2)CC1` showed a melting point of 197 °C.
`Cc1nc(C(F)(F)F)ccc1/C=C/C(=O)Nc1ccc2ncsc2c1` showed a melting point of 196 °C.
`CCCc1c(OCCCCCC#N)ccc(C(=O)c2ccccc2O)c1O` showed a melting point of 62 to 63 °C.
In the case of `CNC(=O)N1CC(C)(C)NC(C)(C)CC1=O`, the melting point is reported as 147 to 149 °C.
Compound `CCCOC1CCC2C3CCC4=CC(=O)CCC4C3CCC12CC` (stereo not given) has a melting point of 83 to 84 °C.
`Brc1ccc2c(c1)CC(N1CCNCC1)c1ccccc1S2` (stereo not given) gave a melting point of 112 to 115 °C.
Work on `CC(CO)NC(=O)CCCCC1CCSS1` (stereo not given) yielded a melting point of 52 to 56 °C.
`O=C(Cc1cccs1)NCCCSc1ccncc1` gave a melting point of 62 to 63 °C.
Work on `O=C(OC1CCN(Cc2ccccc2)CC1)c1ccc(I)cc1` yielded a melting point of 77 to 78 °C.
With `CC(C)(C=O)CN1CCN(CC(C)(C)C=O)C1=O` the melting point was 78 to 80 °C.
With `COc1ccc(-c2cc(=Nc3c(C)cc(C)cc3C)n(C)c(=O)n2C)cc1S(C)=O` (stereo not given) the melting point was 125 to 135 °C.
Compound `O=C1c2ccccc2COc2ccc(CCC(=O)N(O)C3CCCCC3)cc21` has a melting point of 146 to 147 °C.
For `CC(C)C[C@H](NC(=O)C(CS)C(F)(F)F)C(=O)O` (stereo not given in full), the melting point was 132 to 134 °C.
In the case of `COC(=O)Cc1c(C)nc(C)nc1Cl`, the melting point is reported as 53 to 54 °C.
Compound `COc1cc(Nc2c(C#N)cnc3cc4cc(OC)c(OCCN5CCN(C)CC5)cc4cc23)c(Cl)cc1F` has a melting point of 170 to 173 °C.
`Cn1ccc(CON2C(=O)c3ccccc3C2=O)n1` showed a melting point of 122 to 124 °C.
In the case of `O=C(CCCCc1ccccc1)Nc1ccc2c(c1O)C(=O)CC2`, the melting point is reported as 119 to 121 °C.
Compound `COc1nc(NC(=O)NS(=O)(=O)Nc2nc(C)cc(C)n2)nc(OC)n1` has a melting point of 172 °C.
For `CC(=O)Nc1ccc(/C=C/C(=O)NCC(=O)N(C)c2ccc(C)c(CO)c2C)cn1`, the melting point was 215 to 216 °C.
In the case of `CCCCCCCCCCCCCCCCCC(=O)NCCOC(=O)C1=CC(C(C)(C)C)C(O)(C(C)(C)C)C=C1` (stereo not given), the melting point is reported as 56 to 58 °C.
For `CNCc1noc(-c2cc(C(C)(C)C)c(O)c(C(C)(C)C)c2)n1`, the melting point was 120 to 122 °C.
`O=[N+]([O-])c1cc(Br)cc(OCCF)c1` gave a melting point of 59 to 61 °C.
`CN(C)c1cc(N2C(=O)C3=C(CCCC3)C2=O)ccc1Cl` showed a melting point of 124 to 127 °C.
Compound `CNS(=O)(=O)c1ccc(Nc2cc(-n3ccc(C(F)(F)F)n3)c3ccccc3n2)cc1` has a melting point of 220 to 222 °C.
For `CC1(C)CC(=O)Nc2ccc([N+](=O)[O-])cc21`, the melting point was 202 to 204 °C.
With `NC(=O)c1cccc2c1c1c(OCC(=O)O)ccc(Cl)c1n2Cc1ccccc1` the melting point was 240 to 242 °C.
`COCc1cnc2c(N)cc(C)cc2c1Cl` gave a melting point of 135 to 138 °C.
In the case of `CCOC(=O)C1CCn2c1cc(C)c2C(=O)c1ccc(SC)n1C` (stereo not given), the melting point is reported as 101 to 102 °C.
For `CC(c1oc2ccccc2c(=O)c1-c1cccc(F)c1)n1nc(-c2ccc(F)c(O)c2)c2c(N)ncnc21` (stereo not given), the melting point was 241 to 244 °C.
For `Clc1ncnc2c1c(I)cn2C1CCOC1` (stereo not given), the melting point was 184 to 186 °C.
For `CN(C)C1CCN(c2ccc(NC(=O)n3ccc4cc(Oc5cc(CC(N)=O)ncn5)ccc43)cc2C(F)(F)F)C1` (stereo not given), the melting point was 182 to 184 °C.
`C1=C(c2ccc3c(c2)OCCO3)CCN(CCc2cccc3ccccc23)C1` gave a melting point of 170 to 180 °C.

From a melting point compilation (Tetko et al.; mined from patent text by program, amines drawn as free bases though some values may be those of a salt)
